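48-hour exposure; five concentrations; linearly interpolated endpoints. GI50 = concentration required for 50% inhibition of growth. TGI: total growth inhibition.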
Legend:
Experiment in all cases: inhibition of tumour cell growth, NCI panel, 48 h
[1] = tested on: RPMI-8226 leukemia
[2] = tested on: SF-268 CNS
[3] = tested on: SF-295 CNS
[4] = tested on: HL-60(TB) leukemia
[5] = tested on: HOP-92 NSCLC
[6] = tested on: SNB-75 CNS
[7] = tested on: NCI-H23 lung
[8] = tested on: HOP-62 NSCLC
[9] = tested on: SR leukemia
[10] = tested on: SK-MEL-5 melanoma

SMILES | GI50 [1] [µM] | TGI [1] [µM] | GI50 [2] [µM] | TGI [2] [µM] | GI50 [3] [µM] | TGI [3] [µM] | GI50 [4] [µM] | GI50 [5] [µM] | TGI [5] [µM] | GI50 [6] [µM] | TGI [6] [µM] | GI50 [7] [µM] | TGI [7] [µM] | GI50 [8] [µM] | TGI [8] [µM] | GI50 [9] [µM] | TGI [9] [µM] | GI50 [10] [µM] | TGI [10] [µM] | TGI [4] [µM]
O=c1[nH]c(=O)n(C2CC(O)C(CO)O2)cc1C(F)(F)F (stereo unspecified) | > 20.3 | > 100 | 3.14 | > 100 | 2.79 | > 100 | 0.409 | > 100 | > 100 | > 40.9 | > 100 | 1.95 | > 100 | 3.68 | > 100 | 1.02 | > 100 | 0.399 | > 100 | 
C=C1C[C@@H]2C[C@@H](C)CC(O)[C@]2(CCCN)C1O (stereo partly specified) |  | > 100 |  | > 100 |  | > 100 |  |  | > 100 |  | > 100 |  | > 100 |  | > 100 |  | > 100 |  | > 100 | > 100
CC[C@H](C)[C@H](NC(=O)c1cccn1C)C(=O)N(C)[C@H](C[C@@H](OC(C)=O)c1nc(C(=O)N[C@@H](Cc2ccccc2)C[C@H](C)C(=O)OC)cs1)C(C)C | 0.129 | > 18.8 | 0.351 | > 33.3 | 0.0744 |  | 0.076 | 0.13 | 5.08 | 0.0929 | > 33.3 | 0.216 | > 33.3 | 0.32 | > 33.3 | 0.0546 | > 33.3 | 0.103 | 0.736 | 0.208
C[N+](C)=c1ccc2nc3c(cc(NCCCNc4cc5oc6cc(=[N+](C)C)ccc-6nc5c5ccccc45)c4ccccc43)oc-2c1 | 1.69 | 13.1 | 2.17 | 9.2 | 4.64 | 31.8 | 2.56 | 14.7 | 40.1 | 1.56 | 3.64 | 1.61 | 5.45 | 2.92 | 13 | 2.58 | > 28.5 | 1.41 | 2.79 | 9.25
CC(SCc1ccccc1)C(=O)O (stereo unspecified) |  | > 100 |  | > 100 |  | > 100 |  |  | > 100 |  | > 100 |  | > 100 |  | > 100 |  | > 100 |  | > 100 | > 100
COc1ccc(S(=O)(=O)N(C(C)=O)c2ccccc2/C=C/c2cc[n+]([O-])cc2)cc1 | 0.953 | > 10 | 1.71 | > 10 | 0.385 | > 10 | 0.64 |  | > 10 | 0.25 | > 10 | 1.22 | > 10 | 0.86 | > 10 | 0.23 | > 10 | 0.703 | > 10 | > 6.53
CNC(=O)c1cncc(/C=C/c2ccccc2Cl)c1 | > 25 | > 25 | > 25 | > 25 | > 25 | > 25 | > 25 | 12.6 | > 25 | > 19.7 | > 25 | > 25 | > 25 | > 25 | > 25 | > 22.9 | > 25 | > 25 | > 25 | > 25
Nc1ccc(/C=C/c2ccc3cccnc3c2)cc1 |  | > 100 |  | > 100 |  | > 100 |  |  | > 100 |  | > 100 |  | > 100 |  | > 100 |  | > 100 |  | > 100 | > 100
COc1cc(NCCCCCN=C(N)NC(N)=NC(C)C)c2ncccc2c1 | 1.26 | 20 | 0.689 | 13.8 | 13 | 29.2 | 0.575 | 1.75 | 9.82 | 0.666 | 4.4 | 0.401 | 2.3 | 5.14 | 19.1 | 2.08 | 15.8 | 1.44 | 3.01 | 3.46
COc1ccc2nc3cc(Cl)ccc3c(Nc3cc(CN4CCCC4)c(O)c(CN4CCCC4)c3)c2n1 | 2.1 | 5.7 | 1.28 | 3.55 | 2 | 6.51 | 2.07 | 1.04 | 3.74 | 1.38 | 2.7 | 1.72 | 3.88 | 1.38 | 4.91 | 0.902 | 3.14 | 1.56 | 2.9 | 4.78
C[C@H]1C=C2C(=O)O[C@H]3CC[C@@H](C1)[C@@]23O |  | > 100 |  | 15.2 |  | 16.4 |  |  | 16.3 |  | 19.5 |  | 9.53 |  |  |  | > 100 |  | 16.6 | 4.55
COc1ccc2c(c1)CCc1c-2n[nH]c1-c1[nH]nc2c1CCc1cc(OC)ccc1-2 |  |  |  | > 100 |  | 39.5 |  |  | 78.1 |  | 61.3 |  | > 100 |  | 56.3 |  | > 100 |  | > 100 | > 100
O=C(/C=C/C12c3ccccc3C(c3ccccc31)C1C(=O)NC(=O)C12)c1ccccc1 (stereo unspecified) | 1.51 | 4.1 | 2.17 | 6.55 |  |  | 1.5 | 1.41 | 3.52 | 1.2 | 2.55 | 1.79 | 4.01 | 2.17 | 4.38 | 1.57 | 17.6 | 1.72 | 3.1 | 5.97
CCCCn1c(=O)c(/C=C/C(=O)/C=C/c2cc3ccccc3n(CCCC)c2=O)cc2ccccc21 | 0.317 | 0.931 | 1.98 | 5.17 | 1.84 | 4.24 | 1.71 | 1.96 | 4.12 | 2.8 | 8.12 |  |  | 2.27 | 4.08 | 0.315 | > 100 | 1.77 | 3.28 | 6.63
